This passage reports IC50, melting point and EC50 results from patent US8791118B2, “Pyridopyrazines as highly selective ras-Raf-Mek-Erk signal transduction pathway inhibitors” (Aeterna Zentaris GmbH, priority 2011, dated 2014).

For data set [1], the target named is Erk2 (Homo sapiens, UniProt P28482). Nature of the data set: Erk2 alpha kinase assay (cell-free, ALPHA technology). The data set is classed as biochemical. Conditions: 10 μM ATP. As to the method:
The inhibitory effect of the compounds according to the invention was tested on various serine/threonine, tyrosine and lipid kinases in enzymatic assays. Recombinant human kinases such as, for example, Erk2, were used in this case, partly as full-length kinases, partly as shortened fragments, but at least consisting of the functional kinase domains. The commercial kinase proteins (Proqinase, Upstate) were used as recombinant fusion proteins with GST (glutathion-S-transferase) or His-Tag. Depending on the type of substrate, the various kinase reactions were quantified by means of suitable ALPHA™ beads (Perkin-Elmer). The substance testing is described in detail hereinafter for the Erk assay. […] a) MAPK-ALPHAs (e.g. […] The fluorescence was detected the following morning in a Envision plate reader (Perkin-Elmer). The %-inhibition values per substance concentration were calculated by means of the following formula from the raw data determined in the Envision plate reader[…]: Eight determinations were made for each control and two for the substance samples. […] The IC50 values were determined using GraphPadPrism.

Data set [2] has as its system Hct116. The data set is described as follows: XTT assay for anti-proliferative effect. The data set is classed as cell-based. The following applies: Homo sapiens, HCT-116; Hct116 tumour cell line, ~48 h incubation. As to the method: The principle of this test is based on the intracellular reduction of the tetrazolium dye XTT (sodium 3′-[1-(phenylaminocarbonyl)-3,4-tetrazolium]-bis(4-methoxy-6-nitro)benzene sulfonic acid, Sigma) to a formazan dye by mitochondrial dehydrogenases. The dye is only formed by metabolically active cells and its photometrically measurable intensity is a quantitative indicator for the presence of living cells. The reduction of dye formation by incubation of the cells with substances serves as a parameter for the anti-proliferative effect.
The tumour cell lines (ATCC) were injected into 96-well microtitre plates in a defined cell number (1250 cells/well for Hct116) and then incubated overnight in an incubator at 37° C., 5% CO2 and 95% air humidity. The test substances were prepared as stock solutions (10 mM) in DMSO. To determine the EC50 values the potential inhibitor substances were added to the cells in half-logarithmically graded dilutions, resulting in final concentrations of 1.58 nM-50 μM. The cell plates were then incubated for ˜48 h in an incubator at 37° C., 5% CO2 and 95% air humidity.
For the detection reaction the substrate XTT was mixed with PMS (N-Methyl dibenzopyrazine methylsulfate, Sigma) and added to the cells so that a final concentration of 325 μg XTT/ml and 2.5 μg PMS/ml was obtained. It was then incubated for 3 h at 37° C., 95% air humidity. The formazan salt formed by the cellular dehydrogenases could then be quantified by adsorption at 490 nm.
The % inhibition value was evaluated by means of the following formula from the values for the optical densities measured in each case at 490 nm:
Eight determinations were made for each control and two for the substance samples. The 0% control contains no cells, the 100% control (proliferation control) contains no test substance. The EC50 values were determined using GraphPadPrism.
For orientation: Tetrazolium assays rely on reduction of a dye to a coloured formazan, in cell work by metabolically active cells.

The structures appear in SMILES notation. pEC50, pIC50: −log10 of the molar value.

Erk2, sequence (P28482 2-360 limits assumed): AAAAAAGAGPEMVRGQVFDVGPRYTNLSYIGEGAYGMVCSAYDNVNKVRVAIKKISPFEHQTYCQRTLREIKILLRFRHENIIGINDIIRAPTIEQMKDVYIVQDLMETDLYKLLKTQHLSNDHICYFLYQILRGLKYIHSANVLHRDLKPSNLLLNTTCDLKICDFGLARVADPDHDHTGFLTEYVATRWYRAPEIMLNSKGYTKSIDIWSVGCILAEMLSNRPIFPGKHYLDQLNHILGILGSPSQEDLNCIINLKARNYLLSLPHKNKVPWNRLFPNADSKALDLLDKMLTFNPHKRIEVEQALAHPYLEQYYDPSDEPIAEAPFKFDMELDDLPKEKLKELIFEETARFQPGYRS

Regarding `CCn1cc(-c2cnc3ccc(NC(=O)NCCCCc4ccccc4)nc3n2)cn1` [Compound 108, 1-[3-(1-Ethyl-1H-pyrazol-4-yl)-pyrido[2,3-b]pyrazin-6-yl]-3-(4-phenyl-butyl)-urea], the melting point (in general, the temperature of the solid-liquid transition) lay in the range of 207 to 208 °C. Besides, the negative logarithm of the IC50 (pIC50) (in general, the IC50 on a negative log10 scale, so that one unit is a factor of ten) in data set [1] was 8.40.
`Cn1cc(-c2cnc3ccc(NC(=O)NCCCCc4ccccc4)nc3n2)cn1` [Compound 155, 1-[3-(1-Methyl-1H-pyrazol-4-yl)-pyrido[2,3-b]pyrazin-6-yl]-3-(4-phenyl-butyl)-urea] returned a melting point of 198 to 201 °C. In addition, in data set [2], the pEC50 (as a rule, −log10 of the EC50, conventionally taken in molar units) is 6.47. For the same compound, the pIC50 in data set [1] was 8.40.
`COc1cc(CO)ccc1-c1cnc2ccc(NC(=O)N[C@H](C)CCCc3ccccc3)nc2n1` [Compound 156, 1-[3-(4-Hydroxymethyl-2-methoxy-phenyl)-pyrido[2,3-b]pyrazin-6-yl]-3-((R)-1-methyl-4-phenyl-butyl)-urea] registered a melting point of 168 to 170 °C. Moreover, the pIC50 in data set [1] is 9.00.
In the same order, the values of `C[C@H](CCCc1ccccc1)NC(=O)Nc1ccc2ncc(-c3ccncc3)nc2n1` [Compound 157, 1-((R)-1-Methyl-4-phenyl-butyl)-3-(3-pyridin-4-yl-pyrido[2,3-b]pyrazin-6-yl)-urea] are 223 to 226 °C and 8.70.
In the same order, the values of `COc1c(CO)cccc1-c1cnc2ccc(NC(=O)N[C@H](C)CCCc3ccccc3)nc2n1` [Compound 158, 1-[3-(3-Hydroxymethyl-2-methoxy-phenyl)-pyrido[2,3-b]pyrazin-6-yl]-3-((R)-1-methyl-4-phenyl-butyl)-urea] are 168 to 170 °C and 9.00.
`O=C(NCCCCc1ccccc1)Nc1ccc2ncc(-c3cn[nH]c3)nc2n1` [Compound 159, 1-(4-Phenyl-butyl)-3-[3-(1H-pyrazol-4-yl)-pyrido[2,3-b]pyrazin-6-yl]-urea] had a melting point of 231 to 232 °C. In data set [2], the pEC50 was 6.07. The same compound gave a pIC50 in data set [1] of 9.00.
The matching figures for `O=C(NCCCCc1ccccc1)Nc1ccc2ncc(-c3ccc(O)cc3)nc2n1` [Compound 160, 1-[3-(4-Hydroxy-phenyl)-pyrido[2,3-b]pyrazin-6-yl]-3-(4-phenyl-butyl)-urea]: 233 to 235 °C, 6.38 and 9.00.
The compound `COc1ncccc1-c1cnc2ccc(NC(=O)N[C@H](C)CCCc3ccccc3)nc2n1` [Compound 161, 1-[3-(2-Methoxy-pyridin-3-yl)-pyrido[2,3-b]pyrazin-6-yl]-3-((R)-1-methyl-4-phenyl-butyl)-urea] came in with a melting point of 161 to 163 °C. This compound gave a pIC50 in data set [1] of 8.70.
Consider `CC(CCCc1ccccc1)NC(=O)Nc1ccc2ncc(-c3cnn(C)c3)nc2n1` (stereo not drawn) [Compound 164, 1-(1-Methyl-4-phenyl-butyl)-3-[3-(1-methyl-1H-pyrazol-4-yl)-pyrido[2,3-b]pyrazin-6-yl]-urea], for which the melting point lay within 204 to 208 °C. In addition, the negative-log EC50 (pEC50) in data set [2] is 6.25. The compound further gave a negative-log IC50 (pIC50) in data set [1] of 8.70.
Compound `O=C(NCCCCc1ccccc1)Nc1ccc2ncc(-c3ccc(OP(=O)(O)O)cc3)nc2n1` [Compound 165, Phosphoric acid mono-(4-{6-[3-(4-phenyl-butyl)-ureido]-pyrido[2,3-b]pyrazin-3-yl}-phenyl) ester] had a melting point of 202 °C. This compound also gave a pEC50 in data set [2] of 5.50. For the same compound, in data set [1], the pIC50 was 8.52.
Compound `C[C@H](CCCc1ccccc1)NC(=O)Nc1ccc2ncc(N3CCOCC3)nc2n1` [Compound 166, 1-((R)-1-Methyl-4-phenyl-butyl)-3-(3-morpholin-4-yl-pyrido[2,3-b]pyrazin-6-yl)-urea] displayed a melting point of 201 to 203 °C. In addition, the pIC50 in data set [1] is 8.52.
The matching figures for `C[C@H](CCCc1ccccc1)NC(=O)Nc1ccc2ncc(-c3ccc(CO)cc3)nc2n1` [Compound 167, 1-[3-(4-Hydroxymethyl-phenyl)-pyrido[2,3-b]pyrazin-6-yl]-3-((R)-1-methyl-4-phenyl-butyl)-urea]: 187 to 190 °C and 8.52.
As for `C[C@H](CCCc1ccccc1)NC(=O)Nc1ccc2ncc(-c3cnn(CCN4CCOCC4)c3)nc2n1` [Compound 168, 1-((R)-1-Methyl-4-phenyl-butyl)-3-{3-[1-(2-morpholin-4-yl-ethyl)-1H-pyrazol-4-yl]-pyrido[2,3-b]pyrazin-6-yl}-urea], in data set [2], the pEC50 was 6.04. In data set [1], this compound had a pIC50 of 8.52.
Regarding `Cn1cc(-c2cnc3ccc(NC(=O)NCCCC(C)(C)c4ccccc4)nc3n2)cn1` [Compound 169, 1-(4-Methyl-4-phenyl-pentyl)-3-[3-(1-methyl-1H-pyrazol-4-yl)-pyrido[2,3-b]pyrazin-6-yl]-urea], the melting point lay within 208 to 210 °C. Moreover, the negative-log EC50 (pEC50) in data set [2] was 6.25. This compound showed a pIC50 in data set [1] of 8.52.
With `C[C@H](CCCc1ccccc1)NC(=O)Nc1ccc2ncc(-c3cn[nH]c3)nc2n1` [Compound 171, 1-((R)-1-Methyl-4-phenyl-butyl)-3-[3-(1H-pyrazol-4-yl)-pyrido[2,3-b]pyrazin-6-yl]-urea], the melting point fell in the range of 274 to 276 °C. Also, the pIC50 in data set [1] was 8.40.
In the case of `O=C(NCCCCc1ccccc1)Nc1ccc2ncc(N3CCCC3)nc2n1` [Compound 172, 1-(4-Phenyl-butyl)-3-(3-pyrrolidin-1-yl-pyrido[2,3-b]pyrazin-6-yl)-urea], the melting point lay in the range of 204 to 206 °C. In addition, the negative-log IC50 (pIC50) in data set [1] was 8.30.
In the case of `C[C@H](CCCc1ccccc1)NC(=O)Nc1ccc2ncc(N3CCCC3)nc2n1` [Compound 173, 1-((R)-1-Methyl-4-phenyl-butyl)-3-(3-pyrrolidin-1-yl-pyrido[2,3-b]pyrazin-6-yl)-urea], the melting point was in the range of 187 to 190 °C. The pIC50 in data set [1] is 8.30.
For `O=C(NCCCCc1ccccc1)Nc1ccc2ncc(N3CCOCC3)nc2n1` [Compound 176, 1-(3-Morpholin-4-yl-pyrido[2,3-b]pyrazin-6-yl)-3-(4-phenyl-butyl)-urea], the melting point lay within 200 to 202 °C. The pIC50 in data set [1] was 8.22.
`Cc1n[nH]c(C)c1-c1cnc2ccc(NC(=O)N[C@H](C)CCCc3ccccc3)nc2n1` [Compound 177, 1-[3-(3,5-Dimethyl-1H-pyrazol-4-yl)-pyrido[2,3-b]pyrazin-6-yl]-3-((R)-1-methyl-4-phenyl-butyl)-urea]: the melting point lay in the range of 266 to 269 °C. In data set [1], the negative-log IC50 (pIC50) is 8.22.
`COc1ccc(-c2cnc3ccc(NC(=O)NCCCCc4ccccc4)nc3n2)cc1OC` [Compound 178, 1-[3-(3,4-Dimethoxy-phenyl)-pyrido[2,3-b]pyrazin-6-yl]-3-(4-phenyl-butyl)-urea] gave a melting point of 210 to 211 °C. In data set [1], the pIC50 is 8.22.
Take `COc1ccccc1-c1cnc2ccc(NC(=O)N[C@H](C)CCCc3ccccc3)nc2n1` [Compound 179, 1-[3-(2-Methoxy-phenyl)-pyrido[2,3-b]pyrazin-6-yl]-3-((R)-1-methyl-4-phenyl-butyl)-urea]: the melting point was in the range of 137 to 138 °C. In addition, the pIC50 in data set [1] was 8.22.
The matching figures for `C[C@H](CCCc1ccccc1)NC(=O)Nc1ccc2ncc(-c3cccc(C(=O)O)c3)nc2n1` [Compound 196, 3-{6-[3-((R)-1-Methyl-4-phenyl-butyl)-ureido]-pyrido[2,3-b]pyrazin-3-yl}-benzoic acid]: 261 °C (dec.) and 8.40.
For the compound `N[C@@H](Cc1ccc(-c2cnc3ccc(NC(=O)NCCCCc4ccccc4)nc3n2)cc1)C(=O)O` [Compound 197, (S)-2-Amino-3-(4-{6-[3-(4-phenyl-butyl)-ureido]-pyrido[2,3-b]pyrazin-3-yl}-phenyl)-propionic acid], the melting point was 230 to 232 °C. This compound showed a pIC50 in data set [1] of 8.30.
The matching figures for `O=C(NCCCCc1ccccc1)Nc1ccc2ncc(-c3cccc(C(=O)O)c3)nc2n1` [Compound 198, 3-{6-[3-(4-Phenyl-butyl)-ureido]-pyrido[2,3-b]pyrazin-3-yl}-benzoic acid]: 254 to 256 °C and 8.52.
